The results in this text go back to patent publication US7173018B2, “Phospholipid derivatives of non-steroidal anti-inflammatory drugs” (D-Pharm, Ltd., priority 1998, dated 2007).

Converted amounts (≈) assume the structure as drawn.

Series [1] can be described thus: In vitro cleavage of DP-DFC to free diclofenac in rat brain homogenate. Type of series: in vitro ADME. The following applies: for Cleavage of diclofenac from its lipid conjugate: brain homogenate, 37° C., up to 6 hours. Here is the method: (§1) The ability of the compounds of the invention to be cleaved to yield free diclofenac, was studied in vitro in homogenates of rat brain and liver. Two compounds were tested: the prodrug 1-Stearoyl-2-{4-[2-(2,6-dichloroanilino)-phenylacetamido]butanoyl}-sn-glycero-3-phosphocholine (DP-DFC; Z=3), and the compound 1-Stearoyl-2-{3-[2-(2,6-dichloroanilino)-phenylacetamido]propanoyl}-sn-glycero-3-phosphatidylcholine (DP-DFC; Z=2), comprising, respectively, a bridging group having a total of 4 and 3 carbon atoms.
(§2) Liver and brain were surgically removed, under pentobarbitone anesthesia, from male Sabra rats weighing 250–280 g. About 1–1.5 g samples from each tissue were homogenized in PBS pH=7.4 (Dulbecco) at a ratio of 1:9 w/v of tissue to buffer.
(§3) DP-DFC was added to each homogenate to a final concentration of 40 μg/ml. The mixtures were incubated at 37° C. in shaking for 1, 2, 3 and 6 hours, and then were placed on ice to stop the reaction.
(§4) The amounts of free diclofenac in 1 ml samples from either the brain or liver homogenates were determined by reverse phase HPLC assay. The amount of protein in each sample was assayed by the Lowry method.
(§5) The result for each time point represents the average of five repetitions using tissues from five individual animals.
(§6) In order to evaluate the effect of temperature on the reaction, a parallel set of incubations was carried out at 4° C.

Series [2] in a line: In vitro cleavage of DP-DFC to free diclofenac in rat liver homogenate. The format is in vitro ADME. The following applies: 37° C., up to 6 hours. Here is the method:
as §1, §2, §3, §4, §5, §6

Series [3] is described as follows: Octanol/saline distribution (partition coefficient Pc), shake-flask technique. As to conditions: for log Pc (octanol/saline distribution coefficient): 22° C., shake-flask.
Description: In addition, the partition coefficient (Pc) values for these compounds, i.e their distribution ratios between the organic and the aqueous phases (octanol/saline), were calculated.
The distribution of the compounds between the organic and the aqueous phases was measured by the shake-flask technique. Five milliliters of octanol containing about 3 mg of the studied compound were mixed with 5 ml saline. The mixture was shaken overnight at 22° C. before the octanol and saline phases were separated. One ml from each phase was dissolved into an appropriate volume of ethanol so that the optical absorption of the obtained solution is in range of 0.1 to 1.0.
The coefficient Pc is calculated by the following ratio:
[formula] where Aoct is the optical absorption, at λmax, of the ethanol solution in which one ml of octanol phase is dissolved, V1 is the volume of this ethanol solution and l1 is the width (cm) of the cuvette used for measurement of the optical absorption.
Asal is the optical absorption, at λmax, of the ethanol solution in which the one ml of saline phase is dissolved, V2 is the volume of this ethanol solution and l2 is the width (cm) of the cuvette used for measurement of the optical absorption.
Series [4] is described as follows: Solubility measurements of lipid derivatives in water, saline, ethanol and octanol. The following applies: for solubility: 22 °C; for Solubility (mg/ml) Saline / Solubility (mg/ml) Water: 22° C.; a) gel, b) suspension obtained after filtration through 0.45 μm filter.
Description: The solubility of several lipid derivatives of diclofenac, indomethacin, ibuprofen, naproxen and 6-methoxy-2-naphthylacetic acid was determined at room temperature (22° C.) in aqueous solutions (water and saline) and in organic solutions (ethanol and octanol). In addition, the partition coefficient (Pc) values for these compounds, i.e their distribution ratios between the organic and the aqueous phases (octanol/saline), were calculated.

Take `CCCCCCCCCCCCCCCCCC(=O)OC[C@H](COP(=O)([O-])OCC[N+](C)(C)C)OC(=O)CCNC(=O)Cc1ccccc1Nc1c(Cl)cccc1Cl` [DCF n=2, 1-Stearoyl-2-{3-[2-(2,6-dichloroanilino)phenylacetamido]propanoyl}-sn-glycero-3-phosphocholine]: the “Cleavage of diclofenac from its lipid conjugate” value in series [1] and in series [2] was “not” in each case. Further, in series [3], the logD worked out at 2.8 ± 0.1. Besides, the solubility stood at 2 µg/mL (≈ 2.29 µM) in series [4] (saline, saline or isotonic) and 3 µg/mL (≈ 3.44 µM) in series [4] (water).
Regarding `CCCCCCCCCCCCCCCCCC(=O)OC[C@H](COP(=O)([O-])OCC[N+](C)(C)C)OC(=O)CCCNC(=O)Cc1ccccc1Nc1c(Cl)cccc1Cl` [DCF n=3, 1-Stearoyl-2-{4-[2-(2,6-dichloroanilino)phenylacetamido]butanoyl}-sn-glycero-3-phosphocholine], the “Cleavage of diclofenac from its lipid conjugate” value in series [1] and in series [2] was “significant cleavage” in each case. The “Cleavage of prodrug to DFC on cooling to 4° C.” value in series [1] (parallel set of incubations in homogenates at 4° C. (data not shown)) was “completely inhibited”. In addition, the “log Pc (octanol/saline distribution coefficient)” value in series [3] is listed as “≧3”. In addition, the solubility stood at 2 µg/mL (≈ 2.25 µM) in series [4] (saline, saline or isotonic) and 2 µg/mL (≈ 2.25 µM) in series [4] (water).
In the case of `CCCCCCCCCCCCCCCCCC(=O)OC[C@H](COP(=O)([O-])OCC[N+](C)(C)C)OC(=O)CCCCNC(=O)Cc1ccccc1Nc1c(Cl)cccc1Cl` [DCF n=4, 1-Stearoyl-2-{5-[2-(2,6-dichloroanilino)phenylacetamido]valeroyl}-sn-glycero-3-phosphocholine], in series [3], the “log Pc (octanol/saline distribution coefficient)” value is listed as “≧3”. Besides, the solubility in series [4] (saline, saline or isotonic) was found to be 2 µg/mL (≈ 2.22 µM); in series [4] (water), 2 µg/mL (≈ 2.22 µM).
For the compound `CCCCCCCCCCCCCCCCCC(=O)OC[C@H](COP(=O)([O-])OCC[N+](C)(C)C)OC(=O)CCCCCCCNC(=O)Cc1ccccc1Nc1c(Cl)cccc1Cl` [DCF n=7, 1-Stearoyl-2-{8-[2-(2,6-dichloroanilino)phenylacetamido]octanoyl}-sn-glycero-3-phosphocholine], the “log Pc (octanol/saline distribution coefficient)” value in series [3] is “≧3”. Further, the solubility in series [4] (saline, saline or isotonic) was found to be 1 µg/mL (≈ 1.06 µM); in series [4] (water) it was 1 µg/mL (≈ 1.06 µM).
Consider `CCCCCCCCCCCCCCCCCC(=O)OC[C@H](COP(=O)([O-])OCC[N+](C)(C)C)OC(=O)CCCCCCCCCCCNC(=O)Cc1ccccc1Nc1c(Cl)cccc1Cl` [DCF n=11, 1-Stearoyl-2-{12-[2-(2,6-dichloroanilino)phenylacetamido]dodecanoyl}-sn-glycero-3-phosphocholine], for which the “log Pc (octanol/saline distribution coefficient)” value in series [3] is listed as “≧2.5”. Also, the solubility was less than 1 µg/mL in series [4] (saline, saline or isotonic) and less than 1 µg/mL in series [4] (water).
Take `CCCCCCCCCCCCCCCCCC(=O)OC[C@H](COP(=O)([O-])OCC[N+](C)(C)C)OC(=O)CCNC(=O)C(C)c1ccc(CC(C)C)cc1` (stereo partly drawn) [Ibu n=2, 1-Stearoyl-2-{3-[α-methyl-4-(2-methylpropyl)benzeneacetamido]propanoyl}-sn-glycero-3-phosphocholine]: the log distribution coefficient (logD) in series [3] worked out at 1.8. Besides, the solubility in series [4] (saline, saline or isotonic) was determined as 300 µg/mL (≈ 383 µM); in series [4] (water) it was 200 µg/mL (≈ 255 µM).
On to `CCCCCCCCCCCCCCCCCC(=O)OC[C@H](COP(=O)([O-])OCC[N+](C)(C)C)OC(=O)CCCCCNC(=O)C(C)c1ccc(CC(C)C)cc1` (stereo partly drawn) [Ibu n=5, 1-Stearoyl-2-{6-[α-methyl-4-(2-methylpropyl)benzeneacetamido]hexanoyl}-sn-glycero-3-phosphocholine], for which the “log Pc (octanol/saline distribution coefficient)” value in series [3] is reported as “≧3”. For the same compound, the solubility in series [4] (saline, saline or isotonic) was determined as 500 µg/mL (≈ 606 µM); in series [4] (water), 500 µg/mL (≈ 606 µM).
As for `CCCCCCCCCCCCCCCCCC(=O)OC[C@H](COP(=O)([O-])OCC[N+](C)(C)C)OC(=O)CCNC(=O)Cc1c(C)n(C(=O)c2ccc(Cl)cc2)c2ccc(OC)cc12` [Indo n=2, 1-Stearoyl-2-{3-[1-(p-chlorobenzoyl)-5-methoxy-2-methyl-3-indolylacetamido]propanoyl}-sn-glycero-3-phosphocholine], the logD in series [3] was determined as 2.5. For the same compound, the solubility in series [4] (saline, saline or isotonic) was roughly 1500 µg/mL (≈ 1610 µM); in series [4] (water), less than 900 µg/mL.
The corresponding values for `CCCCCCCCCCCCCCCCCC(=O)OC[C@H](COP(=O)([O-])OCC[N+](C)(C)C)OC(=O)CCCNC(=O)Cc1c(C)n(C(=O)c2ccc(Cl)cc2)c2ccc(OC)cc12` [Indo n=3, 1-Stearoyl-2-{4-[1-(p-chlorobenzoyl)-5-methoxy-2-methyl-3-indolylacetamido]butanoyl}-sn-glycero-3-phosphocholine] are 2.5, roughly 1500 µg/mL (≈ 1580 µM) and less than 600 µg/mL.
With `CCCCCCCCCCCCCCCCCC(=O)OC[C@H](COP(=O)([O-])OCC[N+](C)(C)C)OC(=O)CCCCNC(=O)Cc1c(C)n(C(=O)c2ccc(Cl)cc2)c2ccc(OC)cc12` [Indo n=4, 1-Stearoyl-2-{5-[1-(p-chlorobenzoyl)-5-methoxy-2-methyl-3-indolylacetamido]valeroyl}-sn-glycero-3-phosphocholine], the “log Pc (octanol/saline distribution coefficient)” value in series [3] is 2.9. In addition, the solubility in series [4] (saline, saline or isotonic) is roughly 100 µg/mL (≈ 104 µM); in series [4] (water) it was less than 10 µg/mL.
Consider `CCCCCCCCCCCCCCCCCC(=O)OC[C@H](COP(=O)([O-])OCC[N+](C)(C)C)OC(=O)CCCCCNC(=O)Cc1c(C)n(C(=O)c2ccc(Cl)cc2)c2ccc(OC)cc12` [Indo n=5, 1-Stearoyl-2-{6-[1-(p-chlorobenzoyl)-5-methoxy-2-methyl-3-indolylacetamido]hexanoyl}-sn-glycero-3-phosphocholine], for which the logD in series [3] was 3.2. The solubility in series [4] (saline, saline or isotonic) is roughly 10 µg/mL (≈ 10.2 µM); in series [4] (water), less than 10 µg/mL.
In turn, `CCCCCCCCCCCCCCCCCC(=O)OC[C@H](COP(=O)([O-])OCC[N+](C)(C)C)OC(=O)CCCCCCCNC(=O)Cc1c(C)n(C(=O)c2ccc(Cl)cc2)c2ccc(OC)cc12` [Indo n=7, 1-Stearoyl-2-{8-[1-(p-chlorobenzoyl)-5-methoxy-2-methyl-3-indolylacetamido]octanoyl}-sn-glycero-3-phosphocholine] registered a logD in series [3] of 3.7. In addition, the solubility in series [4] (water) is roughly 5 µg/mL (≈ 4.98 µM).
Regarding `CCCCCCCCCCCCCCCCCC(=O)OC[C@H](COP(=O)([O-])OCC[N+](C)(C)C)OC(=O)CCNC(=O)[C@@H](C)c1ccc2cc(OC)ccc2c1` [Nap n=2, 1-Stearoyl-2-{3-[(S)-6-methoxy-α-methyl-2-naphtaleneacetamido]propanoyl}-sn-glycero-3-phosphocholine], the “log Pc (octanol/saline distribution coefficient)” value in series [3] is “≧3”. Besides, in series [4], the “Solubility (mg/ml) Saline” value is 0.06^a) mg/ml and the “Solubility (mg/ml) Water” value was 0.01^a) mg/ml.
On the same counts, the results for `CCCCCCCCCCCCCCCCCC(=O)OC[C@H](COP(=O)([O-])OCC[N+](C)(C)C)OC(=O)CCCNC(=O)[C@@H](C)c1ccc2cc(OC)ccc2c1` [Nap n=3, 1-Stearoyl-2-{4-[(S)-6-methoxy-α-methyl-2-naphtaleneacetamido]butanoyl}-sn-glycero-3-phosphocholine] are “≧3”, 0.09^a) mg/ml and 0.12^a) mg/ml.
The corresponding values for `CCCCCCCCCCCCCCCCCC(=O)OC[C@H](COP(=O)([O-])OCC[N+](C)(C)C)OC(=O)CCCCCNC(=O)[C@@H](C)c1ccc2cc(OC)ccc2c1` [Nap n=5, 1-Stearoyl-2-{6-[(S)-6-methoxy-α-methyl-2-naphtaleneacetamido]hexanoyl}-sn-glycero-3-phosphocholine] are “≧3”, 0.2^a) mg/ml and 0.2^a) mg/ml.

One may read the logD as the decadic logarithm of the distribution of all forms, ionised or not, between an organic phase and buffer at a given pH. Read a low logD as lower lipophilicity. Usually solubility stands for the concentration that dissolves in the medium under given conditions. High values mean a readily soluble substance, low ones a poorly soluble substance.
